Measured values reported in patent US9113625B2, “Adjuvant for agricultural chemicals” (CJB Industries, Inc., priority 2009, dated 2015).

How the values were obtained:
Type in all cases: in vivo
[1] = system: Early Blight (Alternaria solani); experiment: Evaluation of fungicide in the treatment of Early Blight on tomatoes; conditions: inoculated tomato plants; Chlorothalonil 2.5 pt/ac, no adjuvant; rated after one week
Procedure: This example evaluated the effectiveness of the fungicide chlorothalonil for the control of Early Blight on tomatoes. The fungicide was mixed with water in a spray tank at the listed rate treatment (A), or with a permeabilizer (B) and the degree of control of the Early Blight was evaluated. The tomato plants were inoculated with the fungi. The ratings were made after one week on the per cent leaves infected with Alternaria and also the number with severe damage—necrosis.

[2] = system: Bacterial Leaf Spot (Xanthomonas campestris); experiment: Effectiveness of a bactericide on bacterial leaf spot on tomatoes; conditions: inoculated tomato plants; Copper 2#/acre, no adjuvant; rated after two weeks
Procedure: This example evaluated the effectiveness of the bactericide copper hydroxide for the control of bacterial leaf spot on tomatoes. The tomato plants were inoculated with the bacteria. The bactericide was mixed with water in a spray tank at the listed rate treatment (A), or with a permeabilizer (B) and the degree of control of the leaf spot was evaluated. The ratings were made after two weeks on the per cent leaves infected.

[3] = system: fireblight on Southern Crepe Myrtle; experiment: Effectiveness of bactericide streptomycin at controlling fireblight; conditions: infected plants sprayed until wet; rated after two days; adjuvant (B) at 500:1 dilution
Procedure: This example evaluated the effectiveness of the bactericide streptomycin for the control of fireblight on Southern Crepe Myrtle. The bactericide was mixed with water in a spray tank at the listed rate treatment (A), or with a permeabilizer (B). The infected plants were treated with the bactericide by spraying until wet and the degree of control of the fireblight was evaluated. The ratings were made after two days on the rate required for control.

## N#Cc1c(Cl)c(Cl)c(Cl)c(C#N)c1Cl [Chlorothalonil, chlorothalonil]
[1]
  Infected Leaflets: 60%
  Infected Leaves: 42%
  Leaves with >50% Necrosis: 42%

## [Cu+2].[OH-].[OH-] [Copper, copper hydroxide]
[2]
  % Leaves Infected: 63%

## [H]/N=C(/N)N[C@H]1[C@H](O)[C@@H](O)[C@H](O[C@@H]2O[C@@H](C)[C@](O)(C=O)[C@H]2O[C@@H]2O[C@@H](CO)[C@H](O)[C@@H](O)[C@@H]2NC)[C@@H](N/C(N)=N\[H])[C@@H]1O [Streptomycin, streptomycin]
[3]
  Level of Control (rate required for control): 60 ppm
